Inhibition and melting point data for twelve compounds are collected here from patent US8916599B2, “1H-benz imidazole-5-carboxamides as anti-inflammatory agents” (Orexo AB, priority 2008, dated 2014).

For series [1], the target named is T1, recombinant human mPGES-1 (Homo sapiens, UniProt O14684).
T1 construct: made in house; host or cells: Rosetta E. coli (microsomal/membrane fraction)
T1 sequence (O14684 1-152): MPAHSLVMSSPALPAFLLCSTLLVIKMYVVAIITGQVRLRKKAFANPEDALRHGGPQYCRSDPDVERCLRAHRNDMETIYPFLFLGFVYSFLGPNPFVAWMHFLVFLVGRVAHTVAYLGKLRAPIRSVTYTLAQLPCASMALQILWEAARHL
Kind of series: mPGES-1 inhibition test (microsomes, PGH2 substrate, HTRF detection of PGE2). It is filed as biochemical. As to conditions: inhibition of mPGES-1 at 10 μM. The essentials: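 PGE2 formed from PGH2 in one minute by E. coli-expressed microsomal enzyme (pH 7.4, 2.5 mM GSH) was measured by competitive HTRF against a synthetic PGE2 standard curve. Compounds were preincubated 25 min at room temperature.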

Regarding `O=C(NCc1ccccc1C(F)(F)F)c1cc(Br)c2[nH]c(Nc3c(Cl)cccc3Cl)nc2c1` [Example 350, 7-Bromo-2-(2,6-dichloro-phenylamino)-1H-benzimidazole-5-carboxylic acid 2-trifluoromethyl-benzylamide], the melting point was 176 to 178 °C. In addition, the inhibition at 10 µM in series [1] is 99%.

In turn, `O=C(Nc1ccccn1)c1ccc2[nH]c(Nc3c(Cl)cccc3Cl)nc2c1` [Example 293, 2-(2,6-Dichloro-phenylamino)-1H-benzimidazole-5-carboxylic acid pyridin-2-ylamide] yielded a melting point of 245 to 247 °C. In series [1], the inhibition at 10 µM amounted to 87%.

Turning to `O=C(Nc1ccc(Br)cc1)c1ccc2[nH]c(Nc3ccccc3OC(F)(F)F)nc2c1` [Example 106, 2-(2-Trifluoromethoxy-phenylamino)-1H-benzimidazole-5-carboxylic acid (4-bromo-phenyl)-amide], the melting point was in the range of 241 to 243 °C. For the same compound, the inhibition at 10 µM in series [1] turned out to be 82%.

As to `O=C(Nc1ccc(Br)cn1)c1ccc2[nH]c(Nc3c(Cl)cccc3Cl)nc2c1` [Example 303, 2-(2,6-Dichloro-phenylamino)-1H-benzimidazole-5-carboxylic acid (5-bromo-pyridin-2-yl)-amide], the melting point lay within 183 to 185 °C. Besides, in series [1], the inhibition at 10 µM stood at 90%.

Consider `Cc1ccc(Cl)cc1NC(=O)c1ccc2[nH]c(Nc3c(Cl)cccc3Cl)nc2c1` [Example 110, 2-(2,6-Dichloro-phenylamino)-1H-benzimidazole-5-carboxylic acid (5-chloro-2-methyl-phenyl)-amide], for which the melting point lay within 178 to 180 °C. Moreover, in series [1], the inhibition at 10 µM came to 96%.

`COCCOc1cccc(NC(=O)c2ccc3c(c2)nc(Nc2c(Cl)cccc2Cl)n3C)n1` [Example 302, 2-(2,6-Dichloro-phenylamino)-1-methyl-1H-benzimidazole-5-carboxylic acid [6-(2-methoxy-ethoxy)-pyridin-2-yl]-amide] showed a melting point of 185 to 187 °C. For the same compound, the inhibition at 10 µM in series [1] turned out to be 86%.

As for `Cn1c(Nc2c(Cl)cccc2Cl)nc2cc(C(=O)Nc3cccc(Cl)c3)ccc21` [Example 297, 2-(2,6-Dichloro-phenylamino)-1-methyl-1H-benzimidazole-5-carboxylic acid (3-chloro-phenyl)-amide], the melting point fell in the range of 175 to 176 °C. Further, the inhibition at 10 µM in series [1] came out at 97%.

As to `O=C(Nc1nc(C(F)(F)F)cs1)c1ccc2[nH]c(Nc3c(Cl)cccc3Cl)nc2c1` [Example 319, 2-(2,6-Dichloro-phenylamino)-1H-benzimidazole-5-carboxylic acid (4-trifluoro-methyl-thiazol-2-yl)-amide], the melting point was in the range of 301 to 303 °C. In addition, the inhibition at 10 µM in series [1] is 100%.

Regarding `Cn1c(Nc2c(Cl)cccc2Cl)nc2cc(C(=O)Nc3ccc(C#N)cn3)ccc21` [Example 544, N-(5-Cyanopyridin-2-yl)-2-(2,6-dichlorophenylamino)-1-methyl-1H-benzimidazole-5-carboxamide], the melting point lay within 234 to 236 °C. The inhibition at 10 µM in series [1] stood at 91%.

`Cc1ccnc(NC(=O)c2ccc3c(c2)nc(Nc2c(Cl)cccc2Cl)n3C)c1` [Example 335, 2-(2,6-Dichloro-phenylamino)-1-methyl-1H-benzimidazole-5-carboxylic acid (4-methyl-pyridin-2-yl)-amide] came in with a melting point of 157 to 159 °C. The inhibition at 10 µM in series [1] was 95%.

As to `Cc1c(Cl)cccc1NC(=O)c1ccc2[nH]c(Nc3c(Cl)cccc3Cl)nc2c1` [Example 280, 2-(2,6-Dichloro-phenylamino)-1H-benzimidazole-5-carboxylic acid (3-chloro-2-methyl-phenyl)-amide], the melting point was in the range of 267 to 269 °C. The inhibition at 10 µM in series [1] came out at 100%.

`O=C(Nc1cc(C(F)(F)F)ccn1)c1ccc2[nH]c(Nc3c(Cl)cccc3Cl)nc2c1` [Example 304, 2-(2,6-Dichloro-phenylamino)-1H-benzimidazole-5-carboxylic acid (4-trifluoromethyl-pyridin-2-yl)-amide] gave a melting point of 179 to 182 °C. The inhibition at 10 µM in series [1] was found to be 98%.
